Values joined by “and” are separate entries in the source; they are usually repeats but may differ in a detail not shown here. Equal entries are not always repeated.
Legend:
HaCaT cells [1] = assay: Cell viability, crystal violet assay, poly I:C treated HaCaT cells; settings: for Cell viability: 24 h; for Cell viability increase: vs poly I:C alone
Method: (§1) Cell culture. The human keratinocyte cell line HaCaT was a kind gift from Prof. Joseph Kost (Department of Chemical Engineering, Ben-Gurion University of the Negev, Israel). Cells were cultured in Dulbecco's Modified Eagle Medium (DMEM) (Biological Industries, Kibbutz Beit-Haemek, Israel) supplemented with 1% antibiotic-antimycotic (Tivan Biotech, Kfar-Saba, Israel), 1mM sodium pyruvate, and 10% fetal bovine serum (FBS) (Biological Industries), and were maintained in an incubator with 5% CO2 at 37° C.
(§2) CBD was purchased from Sigma Israel. […] PEA was in powder form. A 30 mM stock solution was made by dissolving PEA in dimethyl sulfoxide (DMSO). […] All stocks were filtered using a 0.2 μm filter before use and further diluted to the required concentration in cell medium. Vehicle (control) solutions contained the corresponding amount of DMSO (0.007%).
90,000 cells/well were plated on 12-well plates and allowed to attach at 37° C. for 24 hours. Subsequently, the wells were washed with phosphate-buffered saline (PBS) and the medium was replaced with a medium containing either vehicle (control) or poly I:C. […] The wells were then incubated for further 24 h and 50μL samples were drawn for analysis of cytokines. Samples were frozen and shipped on dry ice.
Cell viability assay. Cell viability was measured using a crystal violet assay. 90,000 cells/well were plated on 12-well plates and allowed to attach at 37° C. for 24 hours. […] 24 hours later medium was aspirated, and cells were washed twice with PBS. 500 μL of crystal violet staining solution (0.5% (w/v) crystal violet powder, 20% methanol) was added to each well, followed by incubation for 30 min at room temperature. The staining solution was discarded, the plates were washed 5 times with distilled water and dried, and 500 μL of 10% acetic acid (v/v) was added to each well. Absorbance was measured at 595 nm.

GM-CSF = GM-CSF in medium of poly I:C treated HaCaT cells, multiplex immunoassay; format: cell-based, human; settings: 24 h
Method: (§3) CBD, PEA and DB. CBD was purchased from Sigma Israel. […] CBD was 3.18 mM solution in ethanol. DB was in pure liquid form. PEA was in powder form.
(§4) Procedure and administration of active compounds. […] Samples were frozen and shipped on dry ice.
(§5) Analysis of cytokine content. Samples were shipped to Eve Technologies, Calgary (Canada) for analysis. Samples were analyzed using Human Focused 13-Plex Discovery Assay, a Multiplex immunoassay with fluorometric detection. Preliminary tests were conducted in order to determine samples dilution. The cytokines measured were granulocyte-macrophage colony-stimulating factor (GM-CSF), interferon gamma (IFNy), interleukin 1 beta (IL-1B), IL-2, IL-4, IL-5, IL-6, IL-8, IL-10, IL-12, IL-13, monocyte chemoattractant protein-1 (MCP-1) and tumor necrosis factor alpha (TNF-α). Results were calculated only for GM-CSF, IL-6, IL-8, MCP-1 and TNF-α.

IL-6 = IL-6 in medium of poly I:C treated HaCaT cells, multiplex immunoassay; format: cell-based, human; settings: 24 h
Method: (§6) CBD was purchased from Sigma Israel. […] PEA was in powder form.
(§7) Samples were frozen and shipped on dry ice.
as §5, with “(TNF-α).” for “(TNF-α). Results were calculated only for GM-CSF, IL-6, IL-8, MCP-1 and TNF-α.”

IL-8 = IL-8 in medium of poly I:C treated HaCaT cells, multiplex immunoassay; format: cell-based, human; settings: 24 h
Method: as §6, §7
as §5, with “(TNF-α).” for “(TNF-α). Results were calculated only for GM-CSF, IL-6, IL-8, MCP-1 and TNF-α.”

MCP-1 = MCP-1 in medium of poly I:C treated HaCaT cells, multiplex immunoassay; format: cell-based, human; settings: for MCP-1: 24 h
Method: as §3, §4, §5

TNF-α = TNF-α in medium of poly I:C treated HaCaT cells, multiplex immunoassay; format: cell-based, human; settings: 24 h
Method: as §3, §4, §5

HaCaT cells [2] = assay: Toxicity on HaCaT cells, qualitative light-microscope assessment after 50 hours; format: cell-based, human
Method: as §3
Toxicity. HaCaT cells were incubated in 12 wells plates until 60-70% confluency was achieved. Subsequently, the cells were washed and incubated with medium containing PEA, DB or CBD. After 50 hours of incubation, the wells were observed under a light microscope and toxicity of the active compounds was assessed qualitatively by comparing the treated cells to controls incubated with vehicle. As concluded, under the conditions tested, PEA can be safely used in concentration of up to 50 μM, DB is non-toxic at concentrations of up to 0.01%, and CBD is non-toxic at concentration of up to 15 μM.

[3] = tested on: GM-CSF, IL-6, IL-8, MCP-1 and TNF-α; assay: Five inflammatory cytokines taken together, poly I:C treated HaCaT cells; format: cell-based, human; settings: higher dose (10 μM) with poly I:C 100 μg/mL
Method: as §1, §2
90,000 cells/well were plated on 12-well plates and allowed to attach at 37° C. for 24 hours. […]
Analysis of cytokine content. […] Samples were analyzed using Human Focused 13-Plex Discovery Assay, a Multiplex immunoassay with fluorometric detection. […] The cytokines measured were granulocyte-macrophage colony-stimulating factor (GM-CSF), interferon gamma (IFNy), interleukin 1 beta (IL-1B), IL-2, IL-4, IL-5, IL-6, IL-8, IL-10, IL-12, IL-13, monocyte chemoattractant protein-1 (MCP-1) and tumor necrosis factor alpha (TNF-α).

[4] = poly I:C 20 μg/mL, percent of control values
[5] = poly I:C 50 μg/mL, percent of control values
[6] = poly I:C 100 μg/mL, percent of control values
[7] = CBD 3 μM with poly I:C 100 μg/mL
[8] = CBD 3 μM with poly I:C 100 μg/mL, percent of poly I:C alone
[9] = CBD 10 μM with poly I:C 100 μg/mL
[10] = CBD 10 μM with poly I:C 100 μg/mL, percent of poly I:C alone
[11] = PEA 0.2 μM with poly I:C 100 μg/mL
[12] = PEA 2 μM with poly I:C 100 μg/mL
[13] = PEA 0.2 μM with poly I:C 100 μg/mL, percent of poly I:C alone
[14] = PEA 2 μM with poly I:C 100 μg/mL, percent of poly I:C alone

“polyinosinic:polycytidylic acid [Poly I:C]” showed a Cell viability (HaCaT cells [1]; poly I:C 20 μg/mL alone) of 1.827 O.D, a Cell viability (HaCaT cells [1]; poly I:C 50 μg/mL alone) of 1.714 O.D and a Cell viability (HaCaT cells [1]; poly I:C 100 μg/mL alone) of 1.259 O.D. The GM-CSF (GM-CSF; poly I:C 20 μg/mL alone) was 53.09 pg/mL, the GM-CSF (GM-CSF; [4]) was 266.74% and the GM-CSF (GM-CSF; poly I:C 50 μg/mL alone) was 62.68 pg/mL. The GM-CSF (GM-CSF; [5]) was 314.94%, the GM-CSF (GM-CSF; poly I:C 100 μg/mL alone) was 76.98 pg/mL and the GM-CSF (GM-CSF; [6]) was 386.75%. The IL-6 (IL-6; poly I:C 20 μg/mL alone) was 14.07 pg/mL, the IL-6 (IL-6; [4]) was 523.57% and the IL-6 (IL-6; poly I:C 50 μg/mL alone) was 19.50 pg/mL. For the same compound, the IL-6 (IL-6; [5]) was 725.81%, the IL-6 (IL-6; poly I:C 100 μg/mL alone) was 35.14 pg/mL and the IL-6 (IL-6; [6]) was 1307.82%. For the same compound, the IL-8 (IL-8; poly I:C 20 μg/mL alone) was 657.01 pg/mL, the IL-8 (IL-8; [4]) was 330.64% and the IL-8 (IL-8; poly I:C 50 μg/mL alone) was 729.48 pg/mL. It also gave an IL-8 (IL-8; [5]) of 367.11%, an IL-8 (IL-8; poly I:C 100 μg/mL alone) of 918.50 pg/mL and an IL-8 (IL-8; [6]) of 462.24%. For the same compound, the MCP-1 (MCP-1; poly I:C 20 μg/mL alone) was 369.54 pg/mL, the MCP-1 (MCP-1; [4]) was 704.95% and the MCP-1 (MCP-1; poly I:C 50 μg/mL alone) was 711.76 pg/mL. For the same compound, the MCP-1 (MCP-1; [5]) was 1357.80%, the MCP-1 (MCP-1; poly I:C 100 μg/mL alone) was 1727.32 pg/mL and the MCP-1 (MCP-1; [6]) was 3295.15%. The “increase in cytokine concentration, MCP-1” value (MCP-1; poly I:C 100 μg/mL, vs control) was “up to 33 fold”, the TNF-α (TNF-α; poly I:C 20 μg/mL alone) was 2.74 pg/mL and the TNF-α (TNF-α; poly I:C 20 μg/mL, percent of control values, control below the standard curve) was 846.39%. For the same compound, the TNF-α (TNF-α; poly I:C 50 μg/mL alone) was 3.81 pg/mL, the TNF-α (TNF-α; poly I:C 50 μg/mL, percent of control values, control below the standard curve) was 1179.38% and the TNF-α (TNF-α; poly I:C 100 μg/mL alone) was 6.47 pg/mL and 6.470 pg/mL. The TNF-α (TNF-α; poly I:C 100 μg/mL, percent of control values, control below the standard curve) was 2001.03%.
`C=C(C)[C@@H]1CCC(C)=C[C@H]1c1c(O)cc(CCCCC)cc1O` [CBD, 2-[(1R,6R)-6-isopropenyl-3-methylcyclohex-2-en-1-yl]-5-pentylbenzene-1,3-diol] was tested, and the Toxicity (HaCaT cells [2]; 5 μM, 50 hours) was “non toxic”, the Toxicity (HaCaT cells [2]; 15 μM, 50 hours) was “non toxic” and the Toxicity (HaCaT cells [2]; 45 μM, 50 hours) was “very toxic”. For the same compound, the “non-toxic (safely used) concentration” value (HaCaT cells [2]; HaCaT cells, 50 hours, under the conditions tested) was “up to 15 μM”, the Cell viability increase (HaCaT cells [1]; 3 μM with poly I:C 100 μg/mL) was 5.5% and the Cell viability increase (HaCaT cells [1]; 10 μM with poly I:C 100 μg/mL) was 15.3%. It also gave a Cell viability (HaCaT cells [1]; [7]) of 1.328 O.D, a Cell viability (HaCaT cells [1]; [8]) of 105.50% and a Cell viability (HaCaT cells [1]; [9]) of 1.451 O.D. It also gave a Cell viability (HaCaT cells [1]; [10]) of 115.29%, a GM-CSF (GM-CSF; [7]) of 56.44 pg/mL and a GM-CSF (GM-CSF; [8]) of 73.32%. For the same compound, the GM-CSF (GM-CSF; [9]) was 49.55 pg/mL, the GM-CSF (GM-CSF; [10]) was 64.37% and the IL-6 (IL-6; [7]) was 18.95 pg/mL. For the same compound, the IL-6 (IL-6; [8]) was 53.94% and 53.04%, the IL-6 (IL-6; [9]) was 12.15 pg/mL and the IL-6 (IL-6; [10]) was 34.57%. For the same compound, the IL-8 (IL-8; [7]) was 643.44 pg/mL, the IL-8 (IL-8; [8]) was 70.05% and the IL-8 (IL-8; [9]) was 335.44 pg/mL. For the same compound, the IL-8 (IL-8; [10]) was 36.52%, the MCP-1 (MCP-1; [7]) was 956.97 pg/mL and 945.97 pg/mL and the MCP-1 (MCP-1; [8]) was 54.77%. For the same compound, the MCP-1 (MCP-1; [9]) was 272.60 pg/mL, the MCP-1 (MCP-1; [10]) was 15.78% and the TNF-α (TNF-α; [7]) was 3.277 pg/mL. For the same compound, the TNF-α (TNF-α; [8]) was 50.64%, the TNF-α (TNF-α; [9]) was 1.517 pg/mL and the TNF-α (TNF-α; [10]) was 23.44%. For the same compound, the “All cytokines measured reduced” value [3] was 60-80%.
In the case of `CCCCCCCCCCCCCCCC(=O)NCCO` [PEA, palmitoylethanolamide], the “non-toxic (safely used) concentration” value (HaCaT cells [2]; human, 50 h) is reported as “up to 50 μM”, the Cell viability (HaCaT cells [1]; [11]) is reported as 1.443 O.D and the Cell viability (HaCaT cells [1]; [12]) is reported as 1.413 O.D. The Cell viability (HaCaT cells [1]; human, 0.2 μM) was 114.66%, the Cell viability (HaCaT cells [1]; human, 2 μM) was 112.28% and the GM-CSF (GM-CSF; [11]) was 60.36 pg/mL. The GM-CSF (GM-CSF; [13]) was 78.42%, the GM-CSF (GM-CSF; [12]) was 57.54 pg/mL and the GM-CSF (GM-CSF; [14]) was 74.75%. For the same compound, the IL-6 (IL-6; [11]) was 27.43 pg/mL, the IL-6 (IL-6; [13]) was 78.08% and the IL-6 (IL-6; [12]) was 27.23 pg/mL. The IL-6 (IL-6; [14]) was 77.49%, the IL-8 (IL-8; [11]) was 810.38 pg/mL and the IL-8 (IL-8; [13]) was 88.23%. For the same compound, the IL-8 (IL-8; [12]) was 773.38 pg/mL and 773.27 pg/mL, the IL-8 (IL-8; [14]) was 84.19% and the MCP-1 (MCP-1; [11]) was 1345.28 pg/mL. The MCP-1 (MCP-1; [13]) was 77.88%, the MCP-1 (MCP-1; [12]) was 1554.20 pg/mL and the MCP-1 (MCP-1; [14]) was 89.98%. It also gave a TNF-α (TNF-α; [11]) of 4.673 pg/mL, a TNF-α (TNF-α; [13]) of 72.23% and a TNF-α (TNF-α; [12]) of 4.470 pg/mL. For the same compound, the TNF-α (TNF-α; [14]) was 69.09%.
